Key:
isolated rings of aortae = experiment: Aortic ring relaxation; set-up: species or system rat; settings: for EC50: Rattus norvegicus, intact aortic rings contracted with phenylepinephrine, mean, S.D., read-out: EC50 for relaxation
Description: Isolated rings of aortae from male Sprague-Dawley rats (250–300 g) were prepared for isometric tension measurements and were equilibrated for 1 h at an optimal resting tension of 10 mN. Tissues were contracted submaximally with 0.3 µM phenylepinephrine, and after 10–15 m cumulative concentration-response curves for SERMs (0.01–30 µM) were obtained. Some aortic ring preparations were denuded of the endothelium, or were treated with 100 µM L-NAME, prior to assessment of SERM-induced relaxation responses.

[1] = test system: hippocampal slices from 16-month old male 3×Tg mice; experiment: LTP in CA1 of hippocampal slices after theta burst stimulation; set-up: species or system mouse; settings: hippocampal slices from C57Bl/6 mice; 100 nM; absence of DMA
Description: LTP in the CA1 field of the hippocampus is a well-studied cellular model for learning and memory. […] At 16 months, an advanced age at which Alzheimer's-like neuropathology is well developed in these animals, studies on LTP have not previously been reported. Nevertheless, we observed a robust, reproducible deficit in LTP in these aged transgenic mice, with field excitatory post-synaptic potentials (fEPSP) showing an end fEPSP of 97.0±6.4% of baseline at 45 min post-TBS, compared to 134.7±10.3% observed in the wild type (WT) transgenic background controls (Fig. 3A,B).
Figure 3 Reversal of LTP deficit in aged 3×Tg mice by SERMs is GPR30 dependent. LTP was measured after TBS in the CA1 region of hippocampal sections from 16 month male 3×Tg mice or WT controls. Test compounds (SERMs 100 nM; G15 100 nM) were added 30 min prior to TBS. […] (C) Secondary analysis of theta bursts indicate action both during induction and stabilization of LTP, through a GPR30 dependent mechanism.
All experiments used 16-month old male 3×Tg transgenic or age-matched WT background controls. For electrophysiology, mice were rapidly decapitated, and brains were removed into an ice-cold aCSF solution (in mM: NaCl 124, KCl 3.0, KH2PO4 1.25, NaHCO3 25.7, D-glucose 10, L-ascorbate 2.0, MgSO4 2.5, and CaCl2 3.3) and sectioned on a tissue chopper into 400 µm sections. Slices were transported to a 37°C solution of aCSF, continuously bubbled with 95% O2/5% CO2, and allowed to recover at least 60 min before experimentation. After placement of a stimulation electrode in the Schaffer commissural fibers and recording electrodes with 2 M NaCl solution into the stratum radiatum of the CA1 area, stimulus intensity was set to evoke submaximal fEPSP and continuously monitored at 20 s intervals for at least 15 min to establish a stable baseline. SERMs (100 nM) and G15 (100 nM) were prepared fresh in perfusate and started at least 30 min before LTP induction to reach a new baseline after enhancement of basal synaptic transmission was observed. […] Resulting fEPSP was monitored at 20 s intervals for ∼60 min post TBS.

| Structure (SMILES) | EC50 (isolated rings of aortae) [µM] | maximal relaxation response, comparison (isolated rings of aortae; intact aortic rings) | efficacy (maximal relaxation) (isolated rings of aortae; intact aortic rings) [% relaxation] | effect on LTP, compound alone [1] |
| --- | --- | --- | --- | --- |
| COc1ccc(-c2sc3cc(O)ccc3c2Oc2ccc(OCCN3CCCCC3)cc2)cc1 [arzoxifene, Arzoxifene] | 3.3 ± 2.5 | significantly less than those for DMA and raloxifene |  |  |
| O=C(c1ccc(OCCN2CCCCC2)cc1)c1c(-c2ccc(O)cc2)sc2cc(O)ccc12 [raloxifene, Raloxifene] | 4 ± 2.9 |  | ~100 |  |
| Brc1cc2c(cc1[C@@H]1Nc3ccccc3[C@@H]3C=CC[C@@H]31)OCO2 [G15] |  |  |  | without effect |

From PMC3745399, “An NO Donor Approach to Neuroprotective and Procognitive Estrogen Therapy Overcomes Loss of NO Synthase Function and Potentially Thrombotic Risk” (PLoS ONE, 2013)
